Three molecules from publication PMC6017844, “4-Thiazolidinone Derivatives as MMP Inhibitors in Tissue Damage: Synthesis, Biological Evaluation and Docking Studies” (Molecules : A Journal of Synthetic Chemistry and Natural …, 2018) can be followed below.

Like-named read-outs stand apart in the source and are kept apart here.

For orientation: melting point means the temperature, or range, at which the solid turns liquid. What is called IC50 is the concentration at which inhibition is half-maximal.

One series deals with T1, human recombinant MMP-9 (Homo sapiens, UniProt P14780).
T1 construct: using 10 nM of proteolytic enzyme (catalytic domains of MMP-9 (Biomol, Inc.)); purchased Biomol, Inc
T1 sequence (P14780 107-444 limits assumed): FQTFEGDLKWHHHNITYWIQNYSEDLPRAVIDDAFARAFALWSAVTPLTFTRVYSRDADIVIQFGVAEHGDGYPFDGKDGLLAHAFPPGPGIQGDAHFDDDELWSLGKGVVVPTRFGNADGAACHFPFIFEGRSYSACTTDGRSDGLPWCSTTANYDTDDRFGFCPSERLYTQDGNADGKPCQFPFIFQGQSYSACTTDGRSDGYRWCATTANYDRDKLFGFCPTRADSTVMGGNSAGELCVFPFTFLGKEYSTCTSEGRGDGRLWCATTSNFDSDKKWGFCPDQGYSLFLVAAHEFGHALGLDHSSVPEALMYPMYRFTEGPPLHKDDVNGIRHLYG
The series is described as follows: MMP-9 fluorimetric assay. Format: biochemical. As to the method: The synthesized compounds 13–19, 22 and 23 were tested for their in vitro ability to inhibit human recombinant MMP-9. Table 2 reports the results of this inhibition assay, expressed as IC50 (µM). […] We used as positive control a potent MMPs inhibitor, NNGH (N-isobutyl-N-(4-methoxy-phenylsulfonyl)glycylhydroxamic acid).
The compounds were evaluated for their ability to inhibit the hydrolysis of fluorescence-quenched peptide substrate Mca-Pro-Leu-Gly-Leu-Dpa-Ala-Arg-NH2 (Biomol, Inc., Enzo Life Sciences, Inc., Farmingdale, NY, USA). The MMP-9 assays were performed in 50 mM HEPES buffer containing 5 mM CaCl2, 0.1 mM ZnCl2, 0.05% Brij-35, at pH 7, using 10 nM of proteolytic enzyme (catalytic domains of MMP-9 (Biomol, Inc.) and 350 nM of peptide substrate. The enzyme was incubated at 25 °C with increasing concentration (0.0004, 0.004, 0.04, 0.4, 4, 40, 400 µM) of compounds, and the fluorescence (excitation max 328 nm; emission max 393 nm) was measured for 3 min after the addition of the substrate using a Victor Wallac 1420 Multilabel Counters fluorimeter (Perkin Elmer, Waltham, MA, USA). The fluorescence values of the samples were plotted against the time with a linear regression fit, using the Origin software, version 7 (Origin Lab Corporation, Northampton, MA, USA). The slope of the line value for each inhibitor concentrations was obtained where an increase of the slope corresponds to a decrease of inhibitory activity. Subsequently, the IC50 values were obtained from a non-linear regression procedure (log inhibitor vs. response) with a variables slope of the regression line (Y) and the molar inhibitor concentration (X), using the software Origin®7 (Origin Lab Corporation). The IC50 value was obtained from the equation Y = P1/(1 + X/P2). NNGH (N-Isobutyl-N-(4-methoxyphenylsulfonyl)glycylhydroxamic acid) a potent MMPs inhibitor was used as a positive control.

Series [1] in a line: Oxygen Radical Absorbance Capacity (ORAC) assay. The settings on record: for ORAC UNITs: fluorescein 10 nM, AAPH 100 mM, 37 °C, pH 7.0, mean ± SD (n = 3), Trolox = 1 ORAC Units. The text has this: Free radicals and ROS are highly reactive molecules that are generated by normal cellular processes. They react with cellular components, damaging DNA, carbohydrates, proteins, and lipids causing cellular and tissue injury. Although organisms have developed complex antioxidant systems to protect themselves from oxidative substances, an excess of ROS production can lead to inflammation and several disease state. ORAC test measures both lipophilic and hydrophilic antioxidant capacity and determines the ability of antioxidants to protect proteins from damage caused by free radicals. ORAC assay has been widely accepted as a standard in vitro to measure the antioxidant activity of synthetic compounds, measuring their capacity to transfer hydrogen atom. The assay measures the loss of fluorescence over time due to peroxyl-radical formation by the breakdown of 2,2′-azobis-2-methyl-propanimidamide dihydrochloride (AAPH). 6-Hydroxy-2,5,7,8-tetramethylchroman-2-carboxylic acid (Trolox), a water soluble vitamin E analog, is a positive control that inhibits the fluorescein decay in a dose dependent manner. The ORAC assay is a kinetic assay measuring fluorescein decay and antioxidant protection over time.
The ORAC assay was performed as previously reported by Cao et al.. The measurements were carried out on a Wallac 1420 Victor^3 96-well plate reader (EG & Wallac, Turku, Finland) with fluorescence filter ([…]). Fluorescein (10 nM) was the fluorescence probe and target molecule for free radical attack from AAPH (100 mM) as peroxyl radical generator. The reaction was conducted at 37 °C at pH 7.0 with Trolox (12.5 μM) as control standard and phosphate buffer as blank. Compounds 13–19 and 22–23 were appropriately diluted with DMSO/buffer (1:10) prior to analysis. The fluorescein fluorescence was recorded every 2 min after addition of AAPH. All measurements were expressed relative to the initial reading. One blank, one standard, and a maximum of 10 samples were analyzed at the same time. Each measure was repeated at least three times. The ORAC value refers to the net protection area under the quenching curve of fluorescein in the presence of an antioxidant. The final results (ORAC value) were calculated and expressed using Trolox equivalents (TE) per gram of extract (TE/g):ORAC value (μM) = K(S sample − S blank)/(S Trolox − S blank)(1) where K is a sample dilution factor, S is the area under the fluorescence decay curve of the sample, Trolox or blank. This area was calculated with Origin®7 (OriginLab Corporation, Northampton, MA, USA).

In another series the test system is NF-κB. The series is described as follows: NF-κB levels by Western blot analysis. Format: cell-based, human. The settings on record: NCTC 2544 stimulated with IFN-γ and histamine, 10 µM, 48 h, in words. From the text:
The treatment of keratinocyte cell line NCTC 2544 with 200 U/mL of IFN-γ and 10^−4 M of H increased NF-κB levels compared to untreated cells. IFN-γ is an essential cytokine in amplifying inflammatory reactions, as it stimulates the synthesis of chemokines that attract inflammatory cells and induces expression of molecules important for the retention and activation of T cells. We employed both IFN-γ and histamine because they use distinct signal transduction pathways, and this can lead to a stronger activation of inflammatory genes. […] Stimulated keratinocytes were treated with compounds 22 and 23 and the levels of NF-κB were measured after 48 h. […]
The normal human keratinocyte cell line NCTC 2544 was provided by Interlab Cell Line Collection Genoa (Genova, Italy) and cultured in Minimum Essential Medium (MEM) (Sigma-Aldrich, Milan, Italy) containing 10% fetal calf serum, 100 U/mL penicillin and 100 μg/mL streptomycin at 37 °C in a humidified, 95% air/5% CO2 atmosphere. […] A day before the experiment, cells were trypsinized, counted, and plated either in 96 wells or in 6 well plates. […]
The expression of nuclear factor kappa-light-chain-enhancer of activated B cells (NF-κB) was evaluated by Western blot analysis. […] Bands were measured densitometrically and their relative density was calculated based on the density of the […] in each sample. […]
(Immunoblotting shows a protein as a band on a membrane.)

In turn, `CC(C(=O)NN1C(=O)CSC1c1ccc([N+](=O)[O-])cc1)c1nsc2ccccc12` (centres unmarked) (hydrate or solvate) [Compound 19, 2-(1,2-Benzothiazol-3-yl)-N-[2-(4-nitrophenyl)-4-oxo-1,3-thiazolidin-3-yl]propanamide] yielded a melting point of 208 to 209 °C.
In the case of `CC(C(=O)NN1C(=O)CSC1c1ccc(O)cc1)c1nsc2ccccc12` (centres unmarked) [Compound 22, 2-(1,2-Benzothiazol-3-yl)-N-[2-(4-hydroxyphenyl)-4-oxo-1,3-thiazolidin-3-yl]propanamide], the melting point fell in the range of 257 to 259 °C. The IC50 at human recombinant MMP-9 (catalytic domain of MMP-9 10 nM, substrate 350 nM, 25 °C, pH 7, mean ± SD (n = 3), n.a. = not active, read-out: IC50 Value) turned out to be 300 ± 50 nM. In addition, in series [1] (delay of fluorescence reduction of fluorescein-AAPH solution), the “antioxidant activity in words” value is “excellent antioxidant effectiveness”. The “ORAC UNITs” value in series [1] is listed as 1.24 ± 0.09 ORAC unit (μmol of Trolox equi. The “effect on NF-κB release” value in the series with NF-κB is “reduced NF-κB release”.
`CC(C(=O)NN1C(=O)CSC1c1ccc(C(=O)O)cc1)c1nsc2ccccc12` (centres unmarked) [Compound 23, 4-(3-{[2-(1,2-Benzothiazol-3-yl)propanoyl]amino}-4-oxo-1,3-thiazolidin-2-yl)benzoic acid] showed a melting point of 137 to 140 °C. Moreover, the IC50 on human recombinant MMP-9 (read-out: IC50 (MMP-9)) is 40 nM. In addition, in series [1], the ORAC value worked out at 0.53 TE/µmol and the “ORAC UNITs” value was 0.53 ± 0.17 ORAC unit (μmol of Trolox equi. Further, the “effect on NF-κB release” value in the series on NF-κB is given as “reduced NF-κB release”.
